The source of these data is patent US7977327B2, “Substituted pyrrolidine derivative” (Daiichi Sankyo Company, Limited, priority 2004, dated 2011).

≈ marks a conversion by molar mass, not a printed value. Counter-ions that a name gives are not always drawn. Like-named read-outs stand apart in the source and are kept apart here. Marks after values point to notes of the source that are not given here. Bounds are passed on as bounds.

One data set has as its system E. coli NIHJ. Description: Antibacterial activity (MIC), standard method of the Japan Society of Chemotherapy. Type of data set: cell-based. As to the method:
(§1) The antimicrobial activities of the compounds of the present invention were determined according to a standard method designated by the Japan Society of Chemotherapy. The results are expressed by MIC (μg/mL) (Table 1). In Table 1, S. aureus 870307 and S. pneumonia J24 are quinolone-resistant bacteria.

A further data set relates to E. faevcalis ATCC 19433. The data set is described as above. Type of data set: cell-based. As to the method: as §1
For the next data set, the system named is K. pneumoniae TYPE I. Described as above. Type of data set: cell-based. Here is the method: as §1
In another data set the test system is P. Vulgalis 08601. The description is as above. The format is cell-based. Here is the method:
as §1

The next data set concerns P. aeruginosa 32104. The description is as above. Type of data set: cell-based. Here is the method:
as §1

For a further data set, the system named is P. aeruginosa 32121. Described as above. The format is cell-based. As to the method:
as §1

Another data set deals with S. aureus 870307. The description is as above. The format is cell-based. Here is the method: as §1
The next data set relates to S. aureus FDA 209P. The data set is described as above. The format is cell-based. Here is the method:
as §1

For the next data set, the system named is S. epidermidis 56500. The data set is described as above. The format is cell-based. Here is the method:
as §1

The subject of another data set is S. flexneri 2A 5503. The description is as above. Type of data set: cell-based. As to the method:
as §1

For the next data set, the system named is S. maltophilia IID 1275. Described as above. The format is cell-based. Here is the method: as §1
The test system of a further data set is S. marcescens 10100. The description is as above. Type of data set: cell-based. Here is the method:
as §1

A further data set deals with S. pneumoniae J24. The data set is described as above. Type of data set: cell-based. As to the method: as §1
Another data set has as its system S. pyogenes G-36. The data set is described as above. The format is cell-based. Here is the method: as §1
For data set [1], the system named is Chinese hamster lung (CHL/IU) cells. The experiment in a line: Effect of inducing chromosomal aberration. The format is cell-based. The following applies: for Percentile induction of structural aberration (TA %): 24 hours. Here is the method: From each sample solution, samples to be tested having a concentration of 1, 3, 10, 30, 50, and 100 μg/mL (as reduced to free form) were prepared. As a negative control, 0.1 mol/L NaOH was employed.
Chinese hamster lung (CHL/IU) cells in logarithmic growth phase were employed. The cells were treated in a culture solution containing each sample to be tested for 24 hours. Subsequently, a chromosome specimen was prepared from the thus-treated cells. The culture solution employed was an Eagle's MEM (product of NISSUI PHARMACEUTICAL CO., LTD.) medium containing 15% fetal bovine serum (15% FBS-MEM).
In each sample concentration, 100 cells during metaphase were observed, to thereby record types and numbers of the chromosomal aberration.

[2] abbreviates: S. aureus 870307, quinolone-resistant.
Where [3] appears, read: S. pneumoniae J24, quinolone-resistant.

`CC[C@H]1CN(c2c(F)cc3c(=O)c(C(=O)O)cn([C@@H]4C[C@@H]4F)c3c2C)C[C@H]1NC` [Compound No. 15, 7-[(3S,4S)-3-Ethyl-4-methylaminopyrrolidin-1-yl]-6-fluoro-1-[(1R,2S)-2-fluorocyclopropyl]-8-methyl-1,4-dihydro-4-oxoquinoline-3-carboxylic acid] showed a melting point of 223 to 225 °C.
`C[C@H]1COc2c(N3CCN(C)CC3)c(F)cc3c(=O)c(C(=O)O)cn1c23` [LVFX, reference compound]: the minimum inhibitory concentration (MIC) came out at 0.012 µg/mL (≈ 0.0332 µM) in the data set with E. coli NIHJ (E. coli NIHJ); 0.78 µg/mL (≈ 2.16 µM) in the data set on E. faevcalis ATCC 19433 (E. faevcalis ATCC 19433); 0.1 µg/mL (≈ 0.277 µM) in the data set with K. pneumoniae TYPE I (K. pneumoniae TYPE I); 0.012 µg/mL (≈ 0.0332 µM) against P. Vulgalis 08601 (P. Vulgalis 08601); 0.2 µg/mL (≈ 0.553 µM) in the data set on P. aeruginosa 32104 (P. aeruginosa 32104); 0.1 µg/mL (≈ 0.277 µM) in the data set on P. aeruginosa 32121 (P. aeruginosa 32121). In addition, the minimum inhibitory concentration (MIC) against S. aureus 870307 (setting [2]) was more than 6.25 µg/mL; in the data set on S. aureus FDA 209P (S. aureus FDA 209P), 0.2 µg/mL (≈ 0.553 µM); against S. epidermidis 56500 (S. epidermidis 56500), 0.39 µg/mL (≈ 1.08 µM); in the data set with S. flexneri 2A 5503, 0.025 µg/mL (≈ 0.0692 µM); in the data set on S. maltophilia IID 1275 (S. maltophilia IID 1275) it was 0.39 µg/mL (≈ 1.08 µM); against S. marcescens 10100 (S. marcescens 10100) it was 0.1 µg/mL (≈ 0.277 µM). In addition, the minimum inhibitory concentration (MIC) with S. pneumoniae J24 (setting [3]) and against S. pyogenes G-36 (S. pyogenes G-36) was 0.78 µg/mL (≈ 2.16 µM) each time.
As to `CC[C@H]1CN(c2c(F)cc3c(=O)c(C(=O)O)cn(C4CC4)c3c2C)C[C@H]1N` [Comparative Compound D, 7-[(3S,4S)-3-Amino-4-ethylpyrrolidine-1-yl]-1-cyclopropyl-6-fluoro-8-methyl-1,4-dihydro-4-oxoquinoline-3-carboxylic acid, reference compound], the “Percentile induction of structural aberration (TA %)” value is on record as 4% in [1] (1 μg/mL, CHL/IU cells); 0% in data set [1] (3 μg/mL, CHL/IU cells); 3% in data set [1] (10 μg/mL, CHL/IU cells); 63* % in data set [1] (30 μg/mL, CHL/IU cells); 98* % in [1] (50 μg/mL, CHL/IU cells); 100* % in [1] (100 μg/mL, CHL/IU cells).
With `CC[C@H]1CN(c2c(F)cc3c(=O)c(C(=O)O)cn([C@@H]4C[C@@H]4F)c3c2OC)C[C@H]1NC` [Compound No. 12, 7-[(3S,4S)-3-Ethyl-4-methylaminopyrrolidin-1-yl]-6-fluoro-1-[(1R,2S)-2-fluorocyclopropyl]-8-methoxy-1,4-dihydro-4-oxoquinoline-3-carboxylic acid], the melting point is 143 to 145 °C.
In the case of `CC[C@H]1CN(c2c(F)c(N)c3c(=O)c(C(=O)O)cn(C4CC4)c3c2C)C[C@H]1N` [Comparative Compound E, 5-amino-7-[(3S,4S)-3-amino-4-ethyl-1-pyrrolidinyl]-1-cyclopropyl-6-fluoro-1,4-dihydro-8-methyl-4-oxoquinoline-3-carboxylic acid, reference compound], the “Percentile induction of structural aberration (TA %)” value is on record as 0% in data set [1] (1 μg/mL, CHL/IU cells); 3% in data set [1] (3 μg/mL, CHL/IU cells); 1% in [1] (10 μg/mL, CHL/IU cells); 6% in [1] (30 μg/mL, CHL/IU cells); “TOX*^1” in [1] (50 μg/mL, CHL/IU cells); “TOX*^1” in data set [1] (100 μg/mL, CHL/IU cells). Further, in data set [1] (CHL/IU cells), the “Concentration at which C-mitosis and ski-pair-like chromosomes are observed considerably” value was not below 50 µg/mL. Moreover, in data set [1] (at a concentration of up to 30 μg/mL), the “Significant increase in number of the cells exhibiting chromosomal aberration” value is given as “not observed”.
Compound `C[C@H]1COc2c(N3C[C@@H](N)[C@@H](C4CC4)C3)c(F)cc3c(=O)c(C(=O)O)cn1c23` [Compound No. 9, (3S)-10-[(3S,4S)-3-Amino-4-cyclopropylpyrrolidin-1-yl]-9-fluoro-2,3-dihydro-3-methyl-7-oxo-7H-pyrido[1,2,3-de][1,4]benzoxazine-6-carboxylic acid] came in with a melting point of 218 to 220 °C.
Regarding `COc1c(N2C[C@@H]3CCCN[C@@H]3C2)c(F)cc2c(=O)c(C(=O)O)cn(C3CC3)c12` [MFLX, reference compound], the MIC against E. coli NIHJ (E. coli NIHJ) came out at 0.006 µg/mL (≈ 0.0149 µM); against E. faevcalis ATCC 19433 (E. faevcalis ATCC 19433) it was 0.2 µg/mL (≈ 0.498 µM); in the data set on K. pneumoniae TYPE I (K. pneumoniae TYPE I), 0.05 µg/mL (≈ 0.125 µM); against P. Vulgalis 08601 (P. Vulgalis 08601), 0.025 µg/mL (≈ 0.0623 µM); against P. aeruginosa 32104 (P. aeruginosa 32104), 0.39 µg/mL (≈ 0.972 µM); with P. aeruginosa 32121 (P. aeruginosa 32121), 0.2 µg/mL (≈ 0.498 µM). Further, the MIC in the data set on S. aureus 870307 (setting [2]) is 0.78 µg/mL (≈ 1.94 µM); in the data set with S. aureus FDA 209P (S. aureus FDA 209P) it was 0.025 µg/mL (≈ 0.0623 µM); against S. epidermidis 56500 (S. epidermidis 56500) it was 0.1 µg/mL (≈ 0.249 µM); in the data set with S. flexneri 2A 5503 it was 0.012 µg/mL (≈ 0.0299 µM); with S. maltophilia IID 1275 (S. maltophilia IID 1275), 0.1 µg/mL (≈ 0.249 µM); against S. marcescens 10100 (S. marcescens 10100) it was 0.1 µg/mL (≈ 0.249 µM). Also, the MIC was 0.025 µg/mL (≈ 0.0623 µM) in the data set with S. pneumoniae J24 (setting [3]) and 0.2 µg/mL (≈ 0.498 µM) in the data set on S. pyogenes G-36 (S. pyogenes G-36).
The compound `CC[C@H]1CN(c2ccc3c(=O)c(C(=O)O)cn([C@@H]4C[C@@H]4F)c3c2C)C[C@H]1N` [Compound No. 14, 7-[(3S,4S)-3-Amino-4-ethylpyrrolidine-1-yl]-1-[(1R,2S)-2-fluorocyclopropyl]-8-methyl-1,4-dihydro-4-oxoquinoline-3-carboxylic acid] had a melting point of 232 to 234 °C.
Take `CCC[C@H]1CN(c2c(F)cc3c(=O)c(C(=O)O)cn([C@@H]4C[C@@H]4F)c3c2C)C[C@H]1N` [Compound No. 5, 7-[(3S,4S)-3-Amino-4-propylpyrrolidin-1-yl]-6-fluoro-1-[(1R,2S)-2-fluorocyclopropyl]-8-methyl-1,4-dihydro-4-oxoquinoline-3-carboxylic acid-hydrochloride]: the minimum inhibitory concentration (MIC) with E. coli NIHJ (Escherichia coli) came to 0.006 µg/mL; against E. faevcalis ATCC 19433, 0.1 µg/mL; with K. pneumoniae TYPE I (Klebsiella pneumoniae), 0.025 µg/mL; in the data set on P. Vulgalis 08601, 0.012 µg/mL; against P. aeruginosa 32104 (Pseudomonas aeruginosa, 32104) it was 0.2 µg/mL; against P. aeruginosa 32121 (Pseudomonas aeruginosa, 32121) it was 0.1 µg/mL. Besides, the MIC against S. aureus 870307 (Staphylococcus aureus, 870307) was determined as 0.2 µg/mL; against S. aureus FDA 209P (Staphylococcus aureus, FDA209P) it was 0.006 µg/mL; with S. epidermidis 56500 (Staphylococcus epidermidis, 56500), 0.025 µg/mL; in the data set on S. flexneri 2A 5503 (Shigella flexneri, 2A5503, read-out: MIC), 0.006 µg/mL; against S. maltophilia IID 1275 (Stenotrophomonas maltophilia, IID1275), 0.05 µg/mL; against S. marcescens 10100 (Serratia marcescens, 10100) it was 0.05 µg/mL. Further, the MIC is 0.025 µg/mL with S. pneumoniae J24 (Streptococcus pneumoniae, J24) and 0.025 µg/mL in the data set on S. pyogenes G-36 (Streptococcus pyogenes, G36).
`CCC[C@H]1CN(c2c(F)cc3c(=O)c(C(=O)O)cn([C@@H]4C[C@@H]4F)c3c2OC)C[C@H]1N` [Compound No. 4, 7-[(3S,4S)-3-Amino-4-propylpyrrolidin-1-yl]-6-fluoro-1-[(1R,2S)-2-fluorocyclopropyl]-8-methoxy-1,4-dihydro-4-oxoquinoline-3-carboxylic acid]: the melting point is 79 to 83 °C.
Still for that read-out and setting: the figure for `CC[C@H]1CN(c2c(F)cc3c(=O)c(C(=O)O)cn4c3c2OC[C@@H]4C)C[C@H]1NC` [Compound No. 13, (3S)-10-[(3S,4S)-3-Ethyl-4-methylaminopyrrolidin-1-yl]-9-fluoro-2,3-dihydro-3-methyl-7-oxo-7H-pyrido[1,2,3-de][1,4]benzoxazine-6-carboxylic acid] is 211 to 213 °C.
The compound `C=C[C@H]1CN(c2c(F)cc3c(=O)c(C(=O)O)cn4c3c2OC[C@@H]4C)C[C@H]1N` [Compound No. 7, (3S)-10-[(3S,4S)-3-Amino-4-vinyl-1-pyrrolidinyl]-9-fluoro-2,3-dihydro-3-methyl-7-oxo-7H-pyrido[1,2,3-de][1,4]benzoxazine-6-carboxylic acid] displayed a melting point of 238 to 240 °C.
In the case of `CN[C@@H]1CN(c2c(F)cc3c(=O)c(C(=O)O)cn([C@@H]4C[C@@H]4F)c3c2C)C[C@@H]1C(C)C` [Compound No. 17, 6-Fluoro-1-[(1R,2S)-2-fluorocyclopropyl]-7-[(3S,4S)-3-isopropyl-4-methylaminopyrrolidin-1-yl]-8-methyl-1,4-dihydro-4-oxoquinoline-3-carboxylic acid], the melting point lay in the range of 168 to 171 °C.
`CCC[C@H]1CN(c2c(F)cc3c(=O)c(C(=O)O)cn4c3c2OC[C@@H]4C)C[C@H]1N` (as salt: hydrochloride) returned a melting point of 225 to 231 °C.
The compound `CCC[C@H]1CN(c2c(F)cc3c(=O)c(C(=O)O)cn([C@@H]4C[C@@H]4F)c3c2C)C[C@H]1N` (as salt: hydrochloride) [Compound No. 5, 7-[(3S,4S)-3-Amino-4-propylpyrrolidin-1-yl]-6-fluoro-1-[(1R,2S)-2-fluorocyclopropyl]-8-methyl-1,4-dihydro-4-oxoquinoline-3-carboxylic acid-hydrochloride] came in with a melting point of 197 to 207 °C.
